Laboratory results taken from ChEMBL document CHEMBL3797097 (J Med Chem, 2016).

How the values were obtained:
D(3) dopamine receptor [1] = molecular target: T1, D(3) dopamine receptor (Homo sapiens, UniProt P35462); assay: Displacement of [3H]N-methylspiperone from human D3 receptor transfected in HEK293 cells measured after 60 mins by liquid scintillation counter; format: cell-based
D(3) dopamine receptor [2] = molecular target: T1, D(3) dopamine receptor; assay: Agonist activity at human D3 receptor transfected in HEK293T cells by BRET based G0 activation assay; format: cell-based, HEK-293T
D(3) dopamine receptor [3] = molecular target: T1, D(3) dopamine receptor; assay: Displacement of [3H]7-OH-DPAT from human D3 receptor transfected in HEK293 cells measured after 60 mins by liquid scintillation counter; format: cell-based
D(3) dopamine receptor [4] = molecular target: T1, D(3) dopamine receptor; assay: Agonist activity at recombinant human D3 receptor expressing in CHOp cells assessed as receptor mediated stimulation of mitogenesis measured as [3H]thymidine incorporation after 24 hrs by scintillation spectrometry; format: cell-based
Homo sapiens [5] = species on record: Homo sapiens; assay: Selectivity index, ratio Ki for human D3 receptor to Ki for human D2 receptor using [3H]7-OH-DPAT displacement assay
Homo sapiens [6] = species on record: Homo sapiens; assay: Selectivity index, ratio Ki for human D3 receptor to Ki for human D2 receptor using [3H]N-methylspiperone displacement assay
D(2) dopamine receptor [7] = molecular target: T2, D(2) dopamine receptor (Homo sapiens, UniProt P14416); assay: biochemical; format: cell-based, HEK293
T2 sequence (P14416 whole entry): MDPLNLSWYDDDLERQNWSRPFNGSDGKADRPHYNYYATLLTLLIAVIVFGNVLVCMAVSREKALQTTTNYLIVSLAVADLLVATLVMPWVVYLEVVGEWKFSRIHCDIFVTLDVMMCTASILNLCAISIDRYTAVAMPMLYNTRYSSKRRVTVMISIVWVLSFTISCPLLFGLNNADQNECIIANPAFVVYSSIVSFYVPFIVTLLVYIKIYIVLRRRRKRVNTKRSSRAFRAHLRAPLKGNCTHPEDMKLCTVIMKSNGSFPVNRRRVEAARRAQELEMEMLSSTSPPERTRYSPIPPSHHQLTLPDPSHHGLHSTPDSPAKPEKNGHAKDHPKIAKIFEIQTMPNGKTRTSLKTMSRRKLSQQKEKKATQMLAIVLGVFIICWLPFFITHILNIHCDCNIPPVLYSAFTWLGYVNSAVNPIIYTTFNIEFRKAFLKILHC

D(2) dopamine receptor [8] = molecular target: T2, D(2) dopamine receptor; assay: Agonist activity at recombinant human D2 receptor expressing in CHOp cells assessed as receptor mediated stimulation of mitogenesis measured as [3H]thymidine incorporation after 24 hrs by scintillation spectrometry; format: cell-based
D(2) dopamine receptor [9] = molecular target: T2, D(2) dopamine receptor; assay: biochemical; format: cell-based, HEK293; remark: listed apart in the source
D(2) dopamine receptor [10] = molecular target: T2, D(2) dopamine receptor; assay: Agonist activity at human D2 receptor transfected in HEK293T cells by BRET based G0 activation assay; format: cell-based, HEK-293T

T1 sequence (P35462 whole entry): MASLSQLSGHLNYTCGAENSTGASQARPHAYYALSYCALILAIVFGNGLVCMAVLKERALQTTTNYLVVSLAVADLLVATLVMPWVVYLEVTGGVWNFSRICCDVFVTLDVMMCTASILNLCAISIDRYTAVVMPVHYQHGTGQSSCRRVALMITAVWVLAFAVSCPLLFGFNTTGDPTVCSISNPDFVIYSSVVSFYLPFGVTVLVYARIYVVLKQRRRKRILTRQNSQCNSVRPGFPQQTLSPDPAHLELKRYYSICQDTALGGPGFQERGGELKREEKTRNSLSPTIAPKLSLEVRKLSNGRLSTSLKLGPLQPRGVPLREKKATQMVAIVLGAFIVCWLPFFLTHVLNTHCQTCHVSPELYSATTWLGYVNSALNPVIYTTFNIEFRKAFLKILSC

| SMILES | Ki (D(3) dopamine receptor [1]) [nM] | EC50 (D(3) dopamine receptor [2]) [nM] | Ki (D(3) dopamine receptor [3]) [nM] | EC50 (D(3) dopamine receptor [4]) [nM] | Ratio Ki (Homo sapiens [5]) | Ratio Ki (Homo sapiens [6]) | Ki (D(2) dopamine receptor [7]) [nM] | EC50 (D(2) dopamine receptor [8]) [nM] | Ki (D(2) dopamine receptor [9]) [nM] | EC50 (D(2) dopamine receptor [10]) [nM] |
| --- | --- | --- | --- | --- | --- | --- | --- | --- | --- | --- |
| CCCN[C@@H]1Cc2cccc3nc(O)n(c23)C1 | 410 | 18.3 | 25.5 | 0.81 |  |  |  |  |  |  |
| CN[C@@H]1Cc2cccc3[nH]c(=O)n(c23)C1 [SUMANIROLE] | 6330 | 186 | 546 | 669 |  |  |  |  |  |  |
| CN(CCCCNC(=O)c1cc2ccccc2[nH]1)[C@@H]1Cc2cccc3[nH]c(=O)n(c23)C1 | 337 | 94.3 | 76.9 | 53 |  |  |  |  |  |  |
| CCCN(CCC)[C@@H]1Cc2cccc3nc(O)n(c23)C1 |  |  |  |  | 2.4 |  |  |  |  |  |
| CN(CCCCNC(=O)c1ccc2c(c1)Cc1ccccc1-2)[C@@H]1Cc2cccc3[nH]c(=O)n(c23)C1 | 1090 | 125 | 12.5 | 11.9 | 2.3 | 0.29 | 3700 | 102 | 5.47 | 109 |
| N[C@@H]1Cc2cccc3[nH]c(=O)n(c23)C1 | 11800 | 1890 | 3390 | 3400 | 30 | 0.98 | 12100 | 684 | 114 | 697 |
| CCCN(C)[C@@H]1Cc2cccc3[nH]c(=O)n(c23)C1 | 290 | 30.7 | 104 | 148 | 8.3 | 0.25 | 1180 | 18.1 | 12.5 | 29 |
| CCCN(CCC)[C@@H]1Cc2cccc3c2n(c(=O)n3CCC)C1 | 6.05 | 51.9 | 3.39 | 3.7 | 1.3 | 0.04 | 146 | 13.7 | 2.59 | 33.9 |
| CCCN(CCC)[C@@H]1Cc2cccc3[nH]c(=O)n(c23)C1 |  | 21.8 | 27.1 |  |  |  |  |  | 11.4 | 2.53 |
| CN[C@@H]1Cc2cc(C#N)cc3[nH]c(=O)n(c23)C1 | 27200 |  |  |  |  |  |  |  | 5120 |  |
| CCCn1c(=O)n2c3c(cccc31)C[C@@H](NC)C2 | 187 | 53.7 | 99.5 | 178 | 7.5 | 0.25 | 751 | 549 | 13.2 | 38.7 |
| CCCCn1c(=O)n2c3c(cccc31)C[C@@H](NC)C2 | 10.3 | 25.6 | 142 | 22 | 11 | 0.03 | 361 | 83 | 12.8 | 30.5 |
| CCCN[C@@H]1Cc2cccc3c2n(c(=O)n3CCC)C1 | 47.9 | 1420 | 21.7 | 56.1 | 2.7 | 0.06 | 868 | 13 | 8.08 | 68 |
